Assay results taken from ChEMBL document CHEMBL5346904 (Eur J Med Chem, 2023).
In brackets after ≈: the same amount, converted by molar mass. Activity calls are given as the source filed them. No cut-off for these calls is given here.

Key:
[1] = Hemolytic activity in human RBC assessed as hemolysis incubated for 1 hr by absorbance based microplate reader analysis; type: toxicity, cell-based, Erythrocyte; settings: human red blood cells (erythrocytes)
Staphylococcus aureus = assay: Antimicrobial activity against Staphylococcus aureus ATCC 9144 assessed as inhibition of bacterial growth incubated for 48 hrs by CLSI based broth microdilution method; type: functional
Pseudomonas aeruginosa = assay: Antimicrobial activity against Pseudomonas aeruginosa ATCC 27853 assessed as inhibition of bacterial growth incubated for 48 hrs by CLSI based broth microdilution method; type: functional
[2] = Selectivity index, ratio of EC50 for hemolytic activity in human RBC assessed as hemolysis to MIC for antimicrobial activity against Bacillus subtilis 168 assessed as inhibition of bacterial growth; type: toxicity; settings: human red blood cells (erythrocytes), read-out: Selectivity Index
Escherichia coli [3] = assay: Antimicrobial activity against Escherichia coli ATCC 25922 assessed as inhibition of bacterial growth incubated for 48 hrs by CLSI based broth microdilution method; type: functional
[4] = Selectivity index, ratio of EC50 for hemolytic activity in human RBC assessed as hemolysis to MIC for antimicrobial activity against Staphylococcus aureus ATCC 9144 assessed as inhibition of bacterial growth; type: toxicity; settings: human red blood cells (erythrocytes), read-out: Selectivity Index
[5] = Selectivity index, ratio of EC50 for hemolytic activity in human RBC assessed as hemolysis to MIC for antimicrobial activity against Escherichia coli ATCC 25922 assessed as inhibition of bacterial growth; type: toxicity; settings: human red blood cells (erythrocytes), read-out: Selectivity Index
Bacillus subtilis [6] = assay: Antimicrobial activity against Bacillus subtilis 168 assessed as inhibition of bacterial growth incubated for 48 hrs by CLSI based broth microdilution method; type: functional
[7] = Selectivity index, ratio of EC50 for hemolytic activity in human RBC assessed as hemolysis to MIC for antimicrobial activity against Pseudomonas aeruginosa ATCC 27853 assessed as inhibition of bacterial growth; type: toxicity; settings: human red blood cells (erythrocytes), read-out: Selectivity Index
Escherichia coli [8] = assay: Antimicrobial activity against Escherichia coli K12 assessed as inhibition of bacterial growth incubated for 48 hrs by CLSI based broth microdilution method; type: functional
Cell membrane [9] = assay: Disruption of outer membrane integrity in Escherichia coli K12 assessed as increase in fluorescence intensity at 51.2 microg/ml measured for 3 mins by NPN uptake assay; type: subcellular; settings: dose 51.2 µg/ml
Cell membrane [10] = assay: Disruption of inner membrane integrity in Escherichia coli K12 at 51.2 microg/ml measured for 180 sec by luciferase based bioluminescence assay; type: subcellular; settings: dose 51.2 µg/ml
Cell membrane [11] = assay: Disruption of inner membrane integrity in Escherichia coli K12 at 51.2 microg/ml measured for 3 mins by luciferase based bioluminescence assay; type: subcellular; settings: dose 51.2 µg/ml
Cell membrane [12] = assay: Induction of outer membrane permeabilization in Escherichia coli K12 assessed as increase in fluorescence intensity at 1.6 to 51.2 microg/ml measured for […] by NPN uptake assay; type: subcellular; settings: dose 1.6-51.2 µg/ml
Escherichia coli [13] = assay: Antibacterial activity against Escherichia coli K12 assessed as reduction in bacterial viability at 1.6 to 51.2 microg/ml measured for 3 min; type: functional, organism-based; settings: dose 1.6-51.2 µg/ml
Cell membrane [14] = assay: Disruption of membrane integrity in Bacillus subtilis 168 measured for 180 sec by luciferase based bioluminescence assay; type: subcellular; settings: dose 1.6-51.2 µg/ml
Bacillus subtilis [15] = assay: Antibacterial activity against Bacillus subtilis 168 assessed as reduction in bacterial viability at 1.6 to 51.2 microg/ml measured after 3 min; type: functional, organism-based; settings: dose 1.6-51.2 µg/ml
Cell membrane [16] = assay: Disruption of inner membrane integrity in Escherichia coli K12 at 1.6 to 25.6 microg/ml measured for 3 mins by luciferase based bioluminescence assay; type: subcellular; settings: dose 1.6-25.6 µg/ml
Cell membrane [17] = assay: Disruption of membrane integrity in Bacillus subtilis 168 at 25.6 microg/ml measured for 180 sec by luciferase based bioluminescence assay; type: subcellular; settings: dose 25.6 µg/ml
Escherichia coli [18] = assay: Antibacterial activity against Escherichia coli K12 assessed as reduction in bacterial viability at 51.2 microg/ml measured for 3 min; type: functional, organism-based; settings: dose 51.2 µg/ml
Escherichia coli [19] = assay: Antibacterial activity against Escherichia coli K12 assessed as reduction in bacterial viability measured for 3 min; type: functional, organism-based; settings: dose 1.6-51.2 µg/ml
Cell membrane [20] = assay: Disruption of membrane integrity in Bacillus subtilis 168 at 25.6 to 51.2 microg/ml measured for 180 sec by luciferase based bioluminescence assay; settings: dose 25.6-51.2 µg/ml

SMILES | EC50 at 1 h [1] [µg/mL] | MIC (Staphylococcus aureus) [µg/mL] | MIC (Pseudomonas aeruginosa) [µg/mL] | selectivity ratio [2] | MIC (Escherichia coli [3]) [µg/mL] | selectivity ratio [4] | MIC (Bacillus subtilis [6]) [µg/mL] | further results
N=C(N)NCCCN1C(=O)N(CCCNC(=N)N)C(Cc2ccc(Br)c3ccccc23)(Cc2ccc(Br)c3ccccc23)C1=O.O=C(O)C(F)(F)F.O=C(O)C(F)(F)F | 206 | 2 | 32 | 103 | 8 | 103 | 2 | selectivity ratio [5]: 26
NCCCCN1C(=O)N(CCCCN)C(Cc2cc(C(F)(F)F)cc(C(F)(F)F)c2)(Cc2cc(C(F)(F)F)cc(C(F)(F)F)c2)C1=O.O=C(O)C(F)(F)F.O=C(O)C(F)(F)F | > 461 | 16 | 64 | – | 64 | – | 4 | –
N=C(N)NCCCCN1C(=O)N(CCCCNC(=N)N)C(Cc2ccc(C(F)(F)F)cc2)(Cc2ccc(C(F)(F)F)cc2)C1=O.O=C(O)C(F)(F)F.O=C(O)C(F)(F)F | > 503 | 4 | > 128 | – | 64 | – | 4 | –
N=C(N)NCCCCN1C(=O)N(CCCCNC(=N)N)C(Cc2cc(Br)cc(Br)c2)(Cc2cc(Br)cc(Br)c2)C1=O.O=C(O)C(F)(F)F.O=C(O)C(F)(F)F | 206 | 1 | 16 | 206 | 4 | 206 | 1 | selectivity ratio [7]: 13; selectivity ratio [5]: 52
NCCCN1C(=O)N(CCCN)C(Cc2ccc(Br)c(Cl)c2)(Cc2ccc(Br)c(Cl)c2)C1=O.O=C(O)C(F)(F)F.O=C(O)C(F)(F)F | 368 | 8 | 32 | – | 32 | – | 4 | –
N=C(N)NCCCN1C(=O)N(CCCNC(=N)N)C(Cc2ccc(Br)c(Cl)c2)(Cc2ccc(Br)c(Cl)c2)C1=O | > 467 | 2 (≈ 2.84 µM) | 64 (≈ 90.7 µM) | > 234 | 32 (≈ 45.4 µM) | > 234 | 2 (≈ 2.84 µM) | –
N=C(N)NCCCN1C(=O)N(CCCNC(=N)N)C(Cc2cc(C(F)(F)F)cc(C(F)(F)F)c2)(Cc2cc(C(F)(F)F)cc(C(F)(F)F)c2)C1=O | > 489 | 4 (≈ 5.33 µM) | 32 (≈ 42.6 µM) | > 245 | 32 (≈ 42.6 µM) | > 122 | 2 (≈ 2.66 µM) | –
NCCCN1C(=O)N(CCCN)C(Cc2cc(C(F)(F)F)cc(C(F)(F)F)c2)(Cc2cc(C(F)(F)F)cc(C(F)(F)F)c2)C1=O.O=C(O)C(F)(F)F.O=C(O)C(F)(F)F | 399 | 16 | 16 | 50 | 16 | 25 | 8 | selectivity ratio [7]: 25; selectivity ratio [5]: 25
NCCCOc1nc(Cc2cc(Br)cc(Br)c2)c(Cc2cc(Br)cc(Br)c2)n1CCCN.O=C(O)C(F)(F)F.O=C(O)C(F)(F)F | 44 | 2 | 4 | – | 4 | – | 2 | –
NCCCCN1C(=O)N(CCCCN)C(Cc2ccc(C(F)(F)F)cc2)(Cc2ccc(C(F)(F)F)cc2)C1=O.O=C(O)C(F)(F)F.O=C(O)C(F)(F)F | > 393 | 64 | > 128 | – | > 128 | – | 16 | –
NCCCN1C(=O)N(CCCN)C(Cc2ccc(C(F)(F)F)cc2)(Cc2ccc(C(F)(F)F)cc2)C1=O.O=C(O)C(F)(F)F.O=C(O)C(F)(F)F | > 379 | 64 | > 256 | – | 256 | – | 16 | –
NCCCN1C(=O)N(CCCN)C(Cc2cc(Br)cc(Br)c2)(Cc2cc(Br)cc(Br)c2)C1=O.O=C(O)C(F)(F)F.O=C(O)C(F)(F)F | 344 | 8 | 8 | 86 | 16 | 43 | 4 | selectivity ratio [7]: 43; selectivity ratio [5]: 22
NCCCN1C(=S)N(CCCN)C(Cc2cc(Br)cc(Br)c2)(Cc2cc(Br)cc(Br)c2)C1=S.O=C(O)C(F)(F)F.O=C(O)C(F)(F)F | 385 | 8 | 32 | – | 16 | – | 8 | –
N=C(NCCCCCCNC(=N)NC(=N)Nc1ccc(Cl)cc1)NC(=N)Nc1ccc(Cl)cc1 [CHLORHEXIDINE] | – | – | – | – | – | – | 1.5 (≈ 2.97 µM) | MIC (Escherichia coli [8]): 1.5 µg/mL (≈ 2.97 µM)
N=C(N)NCCCCN1C(=O)N(CCCCNC(=N)N)C(Cc2ccc(Br)c(Cl)c2)(Cc2ccc(Br)c(Cl)c2)C1=O.O=C(O)C(F)(F)F.O=C(O)C(F)(F)F | 347 | 1 | 32 | 347 | 8 | 347 | 1 | Activity (Cell membrane [9]): Active; Activity (Cell membrane [10]): inactive; Activity (Cell membrane [11]): Active; Activity (Cell membrane [12]): Active; Activity (Escherichia coli [13]): inactive; Activity (Cell membrane [14]): Dose-Dependent Effect; Activity (Bacillus subtilis [15]): Active; selectivity ratio [5]: 43; Activity (Cell membrane [16]): inactive; Activity (Cell membrane [17]): Active; Activity (Escherichia coli [18]): Active; Activity (Escherichia coli [19]): Dose-Dependent Effect; Activity (Cell membrane [20]): Active
N=C(N)NCCCCN1C(=O)N(CCCCNC(=N)N)C(Cc2cc(C(F)(F)F)cc(C(F)(F)F)c2)(Cc2cc(C(F)(F)F)cc(C(F)(F)F)c2)C1=O.O=C(O)C(F)(F)F.O=C(O)C(F)(F)F | 384 | 2 | 32 | 192 | 8 | 192 | 2 | selectivity ratio [5]: 48
NCCCn1c(Cc2cc(Br)cc(Br)c2)c(Cc2cc(Br)cc(Br)c2)n(CCCN)c1=O.O=C(O)C(F)(F)F.O=C(O)C(F)(F)F | 52 | 2 | 8 | – | 4 | – | 1 | –
N=C(N)NCCCN1C(=O)N(CCCNC(=N)N)C(Cc2cc(Br)cc(Br)c2)(Cc2cc(Br)cc(Br)c2)C1=O.O=C(O)C(F)(F)F.O=C(O)C(F)(F)F | 486 | 2 | 32 | 122 | 16 | 243 | 4 | selectivity ratio [5]: 30
NCCCN1C(=O)N(CCCN)C(Cc2ccccc2)(Cc2ccccc2)C1=O.O=C(O)C(F)(F)F.O=C(O)C(F)(F)F | > 311 | > 256 | > 256 | – | > 256 | – | 256 | –
NCCCN1C(=O)N(CCCN)C(Cc2ccc(Br)c3ccccc23)(Cc2ccc(Br)c3ccccc23)C1=O.O=C(O)C(F)(F)F.O=C(O)C(F)(F)F | 69 | 4 | 8 | – | 8 | – | 4 | –
NCCCCN1C(=O)N(CCCCN)C(Cc2ccc(Br)c(Cl)c2)(Cc2ccc(Br)c(Cl)c2)C1=O.O=C(O)C(F)(F)F.O=C(O)C(F)(F)F | > 439 | 8 | 64 | > 110 | 64 | > 55 | 4 | –
NCCCCN1C(=O)N(CCCCN)C(Cc2cc(Br)cc(Br)c2)(Cc2cc(Br)cc(Br)c2)C1=O.O=C(O)C(F)(F)F.O=C(O)C(F)(F)F | 364 | 8 | 32 | – | 32 | – | 2 | –
NCCCN1C(=O)N(CCCN)C(=O)C(Cc2cc(Br)cc(Br)c2)(Cc2cc(Br)cc(Br)c2)C1=O.O=C(O)C(F)(F)F.O=C(O)C(F)(F)F | – | 4 | 8 | – | 8 | – | 4 | –
N=C(N)NCCCN1C(=O)N(CCCNC(=N)N)C(Cc2ccc(C(F)(F)F)cc2)(Cc2ccc(C(F)(F)F)cc2)C1=O.O=C(O)C(F)(F)F.O=C(O)C(F)(F)F | > 421 | 16 | > 256 | – | 128 | – | 8 | –
N=C(N)NCCCN1C(=O)N(CCCNC(=N)N)C(Cc2ccccc2)(Cc2ccccc2)C1=O.O=C(O)C(F)(F)F.O=C(O)C(F)(F)F | > 353 | 64 | > 256 | – | > 256 | – | 128 | –
